From patent US7041307B2, “Biocide-polyester concentrates and biocidal compositions prepared therefrom” (Ciba Specialty Chemicals Corporation, priority 1999, dated 2006)

Experiment: Yellowness index (ASTM D1925) of polypropylene plaques after multiple pass extrusion, biocide as neat powder or polyester concentrate (Example 2)
Assay type: physicochemical
Conditions: polypropylene plaque
Excerpt: Polypropylene homopolymer (PRO-FAX® 6501, Montell Polyolefins, 100 parts), stabilized with 0.05 parts of neopentanetetrayl tetrakis(3,5-di-tert-butyl-4-hydroxyhydrocinnamate), 0.10 parts of tris(2,4-di-tert-butylohenyl) phosphite and 0.05 parts of calcium stearate is dry blended without a biocide; or with 0.25 parts or with 0.50 parts of 2,4,4′-trichloro-2′-hydroxydiphenyl ether (IRGASAN® or IRGAGUARD®, Ciba Specialty Chemicals Corp.) either as a neat powder or as a concentrate as prepared in Example 1. The parts of components are by weight.
The extruded pellets are compression molded into 125 mil plaques (2″×2″, 5.08 cm×5.08 cm) at 450° F. (232° C.) for nine minutes (three minutes at low pressure; three minutes at high pressure; three minutes cooling). Yellowness index (YI) values are determined on the plaques according to ASTM D1925 on a DCI SF600 spectrophotometer. An increase in yellowness corresponds to a positive increase in the YI value.

Oc1cc(Cl)ccc1Oc1ccc(Cl)cc1Cl [Powder, 2,4,4′-trichloro-2′-hydroxydiphenyl ether]
Yellowness Index (YI) after multiple pass extrusion at 500° F. (260° C.) First (biocide 0.25% by wt): 8.4 | Yellowness Index (YI) after multiple pass extrusion at 550° F. (288° C.) First (biocide 0.25% by wt): 6.4 | Yellowness Index (YI) after multiple pass extrusion at 500° F. (260° C.) Second (biocide 0.25% by wt): 8.8 | Yellowness Index (YI) after multiple pass extrusion at 550° F. (288° C.) Second (biocide 0.25% by wt): 6.3 | Yellowness Index (YI) after multiple pass extrusion at 500° F. (260° C.) Third (biocide 0.25% by wt): 9.7 | Yellowness Index (YI) after multiple pass extrusion at 550° F. (288° C.) Third (biocide 0.25% by wt): 6.6 | Yellowness Index (YI) after multiple pass extrusion at 500° F. (260° C.) First (biocide 0.50% by wt): 8.8 | Yellowness Index (YI) after multiple pass extrusion at 550° F. (288° C.) First (biocide 0.50% by wt): 7.1 | Yellowness Index (YI) after multiple pass extrusion at 500° F. (260° C.) Second (biocide 0.50% by wt): 9.7 | Yellowness Index (YI) after multiple pass extrusion at 550° F. (288° C.) Second (biocide 0.50% by wt): 7.2 | Yellowness Index (YI) after multiple pass extrusion at 500° F. (260° C.) Third (biocide 0.50% by wt): 9.2 | Yellowness Index (YI) after multiple pass extrusion at 550° F. (288° C.) Third (biocide 0.50% by wt): 7.4
